One series concerns the target eeAChE (Electrophorus electricus, UniProt O42275). The series can be described thus: eeAChE inhibition, modified Ellman's method. The series is classed as biochemical, electric eel. (In general: DTNB colorimetry detects thiols as they appear.)
A further series concerns the target eqBuChE (Equus caballus, UniProt P81908). The series can be described thus: eqBuChE inhibition, modified Ellman's method. The class given is biochemical, equine.
A further series addresses huBuChE (Homo sapiens, UniProt P06276). The series can be described thus: huBuChE inhibition, modified Ellman's method. The class given is biochemical.
Series [1] concerns LPS-induced NO production of mouse microglia cells (BV-2). The series can be described thus: LPS-induced NO production in BV-2 microglia. The series is classed as cell-based. The conditions noted are these: for NO production: 10 μM compound, LPS-induced BV-2 cells.
The conditions of series [2]: PAMPA-BBB reported values; ref [35],[36]; cited from earlier work. In general terms: PAMPA measures passive passage across an artificial lipid membrane.
Series [3] is described as follows: PAMPA-BBB in vitro blood-brain barrier permeation assay. The conditions noted are these: for Papp at 10 h, 25 μg/mL: PAMPA, pH 7.4; for CNS (±): PAMPA-BBB classification from Pe.
Series [4] concerns scopolamine-induced cognitive impairment mouse model. The series can be described thus: Morris water maze test in scopolamine-induced cognitive impairment mouse model. The class given is in vivo, C57BL/6J mice. The conditions noted are these: 1 mg/kg oral once daily, scopolamine 5 mg/kg i.p.

Molecules are shown by their SMILES.

huBuChE, sequence (P06276 29-602): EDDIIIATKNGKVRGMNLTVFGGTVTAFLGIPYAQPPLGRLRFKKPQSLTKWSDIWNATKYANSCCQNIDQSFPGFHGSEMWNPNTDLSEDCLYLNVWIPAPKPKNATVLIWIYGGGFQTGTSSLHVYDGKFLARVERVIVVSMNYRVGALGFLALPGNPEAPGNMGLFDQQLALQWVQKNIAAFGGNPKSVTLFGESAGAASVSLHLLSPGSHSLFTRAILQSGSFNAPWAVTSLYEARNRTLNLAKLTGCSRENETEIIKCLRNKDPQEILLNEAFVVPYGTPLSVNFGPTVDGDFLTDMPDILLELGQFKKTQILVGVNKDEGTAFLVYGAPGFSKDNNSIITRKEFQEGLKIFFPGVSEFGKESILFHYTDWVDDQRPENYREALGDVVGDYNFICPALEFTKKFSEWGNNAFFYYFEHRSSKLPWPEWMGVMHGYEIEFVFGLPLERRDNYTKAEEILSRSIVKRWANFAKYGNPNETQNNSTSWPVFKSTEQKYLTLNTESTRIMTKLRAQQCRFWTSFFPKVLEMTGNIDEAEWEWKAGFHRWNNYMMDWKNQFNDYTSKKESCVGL
eeAChE, sequence (O42275 24-633): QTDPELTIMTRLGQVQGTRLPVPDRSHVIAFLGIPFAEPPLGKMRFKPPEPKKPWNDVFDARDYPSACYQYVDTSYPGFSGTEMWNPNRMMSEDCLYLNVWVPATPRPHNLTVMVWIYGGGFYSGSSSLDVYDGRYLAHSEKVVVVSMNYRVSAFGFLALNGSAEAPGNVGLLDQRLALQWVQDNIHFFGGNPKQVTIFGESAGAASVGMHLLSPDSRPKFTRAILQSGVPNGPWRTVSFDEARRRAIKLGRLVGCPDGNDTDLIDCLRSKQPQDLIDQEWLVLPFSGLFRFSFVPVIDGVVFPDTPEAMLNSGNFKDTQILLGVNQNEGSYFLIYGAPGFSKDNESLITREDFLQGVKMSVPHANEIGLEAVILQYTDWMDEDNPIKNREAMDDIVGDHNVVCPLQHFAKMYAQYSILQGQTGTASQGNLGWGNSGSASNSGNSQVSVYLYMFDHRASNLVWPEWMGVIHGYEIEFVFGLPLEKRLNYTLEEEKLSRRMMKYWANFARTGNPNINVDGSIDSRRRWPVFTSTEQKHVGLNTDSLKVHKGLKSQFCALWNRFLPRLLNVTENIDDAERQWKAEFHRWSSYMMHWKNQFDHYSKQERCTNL
eqBuChE, sequence (P81908 whole entry): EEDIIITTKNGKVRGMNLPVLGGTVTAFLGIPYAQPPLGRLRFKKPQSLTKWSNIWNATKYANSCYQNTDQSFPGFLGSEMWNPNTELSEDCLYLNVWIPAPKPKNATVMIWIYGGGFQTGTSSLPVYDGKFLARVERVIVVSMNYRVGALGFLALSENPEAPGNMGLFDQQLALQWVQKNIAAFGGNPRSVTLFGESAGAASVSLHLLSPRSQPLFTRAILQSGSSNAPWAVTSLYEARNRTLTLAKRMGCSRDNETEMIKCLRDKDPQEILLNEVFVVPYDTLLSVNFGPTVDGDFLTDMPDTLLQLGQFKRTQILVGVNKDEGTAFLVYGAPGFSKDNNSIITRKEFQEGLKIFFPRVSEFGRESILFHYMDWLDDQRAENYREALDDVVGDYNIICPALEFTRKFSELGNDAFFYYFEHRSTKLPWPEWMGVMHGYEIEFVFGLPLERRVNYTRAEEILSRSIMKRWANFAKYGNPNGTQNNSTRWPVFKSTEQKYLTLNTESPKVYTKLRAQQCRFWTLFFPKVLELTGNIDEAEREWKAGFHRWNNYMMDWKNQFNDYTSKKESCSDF

What is called IC50 is the concentration that inhibits the measured activity by half. Consider `Cc1cc(=O)c(OCc2ccccc2)c(/C=C/c2cccc(OC(=O)N(C)C)c2)o1` [Compound 7a, (E)-3–(2-(3-(benzyloxy)-6-methyl-4-oxo-4H-pyran-2-yl)vinyl)phenyl dimethylcarbamate], for which the IC50 at eeAChE is > 20000 nM; on eqBuChE, 24.6 ± 6.66 nM; at huBuChE, 99.4 ± 20.6 nM. This molecule also registered an NO production in series [1] of 90.31%.

Take `CCN(C)C(=O)Oc1cccc(/C=C/c2oc(C)cc(=O)c2OCc2ccccc2)c1` [Compound 7b, (E)-3–(2-(3-(benzyloxy)-6-methyl-4-oxo-4H-pyran-2-yl)vinyl)phenyl ethyl(methyl)carbamate]: the IC50 against eeAChE was > 20000 nM; against eqBuChE, 157 ± 13.3 nM; against huBuChE, 631 ± 155 nM.

For the molecule `CCN(CC)C(=O)Oc1cccc(/C=C/c2oc(C)cc(=O)c2OCc2ccccc2)c1` [Compound 7c, (E)-3–(2-(3-(benzyloxy)-6-methyl-4-oxo-4H-pyran-2-yl)vinyl)phenyl diethylcarbamate], the IC50 was > 20000 nM on eeAChE, 652 ± 44.5 nM against eqBuChE and > 10000 nM against huBuChE.

Consider `Cc1cc(=O)c(OCc2ccccc2)c(/C=C/c2cccc(OC(=O)N(C(C)C)C(C)C)c2)o1` [Compound 7d, (E)-3–(2-(3-(benzyloxy)-6-methyl-4-oxo-4H-pyran-2-yl)vinyl)phenyl diisopropylcarbamate], for which the IC50 at eeAChE was > 20000 nM; at eqBuChE, 8530 ± 314 nM; at huBuChE, > 10000 nM. The molecule further showed an NO production in series [1] of 80.01%.

Turning to `Cc1cc(=O)c(OCc2ccccc2)c(/C=C/c2cccc(OC(=O)N(c3ccccc3)c3ccccc3)c2)o1` [Compound 7e, (E)-3–(2-(3-(benzyloxy)-6-methyl-4-oxo-4H-pyran-2-yl)vinyl)phenyl diphenylcarbamate], the figures for the IC50 on eeAChE, against eqBuChE and on huBuChE were > 20000 nM, > 10000 nM and > 10000 nM, respectively. The NO production in series [1] was 106.16%.

For the molecule `Cc1cc(=O)c(OCc2ccccc2)c(/C=C/c2cccc(OC(=O)N3CCCC3)c2)o1` [Compound 7f, (E)-3–(2-(3-(benzyloxy)-6-methyl-4-oxo-4H-pyran-2-yl)vinyl)phenyl pyrrolidine-1-carboxylate], the values for the IC50 against eeAChE, on eqBuChE and on huBuChE were > 20000 nM, 31.4 ± 5.97 nM and 156 ± 36 nM, respectively.

Turning to `Cc1cc(=O)c(OCc2ccccc2)c(/C=C/c2cccc(OC(=O)N3CCCCC3)c2)o1` [Compound 7g, (E)-3–(2-(3-(benzyloxy)-6-methyl-4-oxo-4H-pyran-2-yl)vinyl)phenyl piperidine-1-carboxylate], the figures for the IC50 at eeAChE, at eqBuChE and on huBuChE were > 20000 nM, 15.3 ± 0.75 nM and 38.7 ± 2.08 nM, respectively. This molecule also displayed an NO production in series [1] of 90.09%.

Take `Cc1cc(=O)c(OCc2ccccc2)c(/C=C/c2cccc(OC(=O)N3CCOCC3)c2)o1` [Compound 7h, (E)-3–(2-(3-(benzyloxy)-6-methyl-4-oxo-4H-pyran-2-yl)vinyl)phenyl morpholine-4-carboxylate]: the IC50 is > 20000 nM on eeAChE, 72.6 ± 9.39 nM against eqBuChE and > 10000 nM against huBuChE.

For `Cc1cc(=O)c(OCc2ccccc2)c(/C=C/c2cccc(OC(=O)N3CCC(Cc4ccccc4)CC3)c2)o1` [Compound 7i, (E)-3–(2-(3-(benzyloxy)-6-methyl-4-oxo-4H-pyran-2-yl)vinyl)phenyl 4-benzylpiperidine-1-carboxylate], the IC50 was > 20000 nM at eeAChE, 75.2 ± 11.9 nM against eqBuChE and 374 ± 6.45 nM on huBuChE.

With `Cc1cc(=O)c(OCc2ccccc2)c(/C=C/c2cccc(OC(=O)N3CCN(Cc4ccccc4)CC3)c2)o1` [Compound 7j, (E)-3–(2-(3-(benzyloxy)-6-methyl-4-oxo-4H-pyran-2-yl)vinyl)phenyl 4-benzylpiperazine-1-carboxylate], the IC50 is > 20000 nM against eeAChE, 31.8 ± 6.92 nM on eqBuChE and 733 ± 59.8 nM on huBuChE.

What is called inhibition is the drop in the measured response relative to a control, in per cent. For `Cc1cc(=O)c(OCc2ccccc2)c(/C=C/c2cccc(OCC(=O)N3CCCCC3)c2)o1` [Compound 7k, (E)-3-(benzyloxy)-6-methyl-2–(3–(2-oxo-2-(piperidin-1-yl)ethoxy)styryl)-4H-pyran-4-one], the IC50 is > 20000 nM at eeAChE, 1430 ± 131 nM at eqBuChE and 486 ± 46.2 nM against huBuChE. In series [1], this molecule registered an NO production of 64.59%. The inhibition at 10 µM in series [1] (Mus musculus, BV-2, read-out: NO inhibition) stood at 35.4%.

Consider `O=C(Oc1cccc(/C=C/c2occc(=O)c2OCc2ccccc2)c1)N1CCCCC1` [Compound 7l, (E)-3–(2-(3-(benzyloxy)-4-oxo-4H-pyran-2-yl)vinyl)phenyl piperidine-1-carboxylate], for which the IC50 against eeAChE is > 20000 nM; against eqBuChE it was 8.1 ± 2.75 nM; against huBuChE, 6.93 ± 1.57 nM.

On to `O=C(Oc1cccc(/C=C/c2oc(CO)cc(=O)c2OCc2ccccc2)c1)N1CCCCC1` [Compound 7m, (E)-3–(2-(3-(benzyloxy)-6-(hydroxymethyl)-4-oxo-4H-pyran-2-yl)vinyl)phenyl piperidine-1-carboxylate], for which the IC50 is > 20000 nM against eeAChE, 5.22 ± 1.72 nM on eqBuChE and 16.5 ± 5.44 nM against huBuChE. The molecule also gave an NO production in series [1] of 76.97%.

On to `Cc1cc(=O)c(OCc2ccc3ccccc3c2)c(/C=C/c2cccc(OC(=O)N3CCCCC3)c2)o1` [Compound 7n, (E)-3–(2-(6-methyl-3-(naphthalen-2-ylmethoxy)-4-oxo-4H-pyran-2-yl)vinyl)phenyl piperidine-1-carboxylate], for which the IC50 is > 20000 nM on eeAChE, 18.9 ± 5.98 nM against eqBuChE and 39.4 ± 4.2 nM at huBuChE.

As to `Cc1cc(=O)c(OCc2ccc(-c3ccccc3)cc2)c(/C=C/c2cccc(OC(=O)N3CCCCC3)c2)o1` [Compound 7o, (E)-3–(2-(3-([1,1′-biphenyl]-4-ylmethoxy)-6-methyl-4-oxo-4H-pyran-2-yl)vinyl)phenyl piperidine-1-carboxylate], the IC50 was > 20000 nM against eeAChE, 19.2 ± 1.91 nM on eqBuChE and 37.9 ± 5.37 nM against huBuChE.

Turning to `Cc1cc(=O)c(OCc2ccccc2)c(-c2ccc3ccc(OC(=O)N4CCCCC4)cc3c2)o1` [Compound 7q, 7–(3-(Benzyloxy)-6-methyl-4-oxo-4H-pyran-2-yl)naphthalen-2-yl piperidine-1-carboxylate], the IC50 against eeAChE was > 20000 nM; at eqBuChE, 41.7 ± 11.3 nM; against huBuChE, 230 ± 29.9 nM.

In the case of `Cc1cc(=O)c(OCc2ccccc2)c(-c2ccc(-c3cccc(OC(=O)N4CCCCC4)c3)cc2)o1` [Compound 7r, 4′-(3-(Benzyloxy)-6-methyl-4-oxo-4H-pyran-2-yl)-[1,1′-biphenyl]-3-yl piperidine-1-carboxylate], the IC50 is > 20000 nM against eeAChE, 94.3 ± 20.9 nM at eqBuChE and 651 ± 157 nM on huBuChE.

Regarding `Cc1cc(=O)c(OCc2ccccc2)c(CCc2cccc(OC(=O)N3CCCCC3)c2)o1` [Compound 7s, 3–(2-(3-(Benzyloxy)-6-methyl-4-oxo-4H-pyran-2-yl)ethyl)phenyl piperidine-1-carboxylate], the IC50 against eeAChE is > 20000 nM; at eqBuChE, 12.3 ± 3.12 nM; at huBuChE, 11 ± 1.7 nM. The NO production in series [1] is 77.77%.

As usually defined, the Papp is the rate of passage across a membrane or cell layer, normalised by area and donor concentration. As for `CCn1cc(C(=O)O)c(=O)c2cc(F)c(N3CCNCC3)cc21` [Norfloxacin], the “Pe(ref.)” value in series [2] is 1e-07 cm/s. Further, in series [3], the Papp at 10 h, 25 μg/mL was found to be 0.18 ± 0.03 ×10⁻⁶ cm/s and the “CNS (±)” value is recorded as “CNS - (CNS -: (low BBB permeability), Pe (×10^−6 cm/s) < 2.03)”.

For `CN1C(C(=O)Nc2ccccn2)=C(O)c2ccccc2S1(=O)=O` [Piroxicam], the “Pe(ref.)” value in series [2] is 2.5e-06 cm/s. In series [3], the Papp at 10 h, 25 μg/mL amounted to 2.16 ± 0.04 ×10⁻⁶ cm/s and the “CNS (±)” value is “CNS +/-”.

Regarding `CCN(C)C(=O)Oc1cccc([C@H](C)N(C)C)c1` [Rivastigmine, reference compound], in series [4] (fifth day of training trials), the “escape latency to the platform” value came out at 31.15 s. In addition, the “number of crossing the platform” value in series [4] (last day without platform) worked out at 3.0 times.

Turning to `CN1C(C(=O)Nc2ccccn2)=C(O)c2sccc2S1(=O)=O` [Tenoxicam], the “Pe(ref.)” value in series [2] was 1e-07 cm/s. Besides, in series [3], the Papp at 10 h, 25 μg/mL was found to be 0.35 ± 0.16 ×10⁻⁶ cm/s and the “CNS (±)” value is listed as “CNS - (CNS -: (low BBB permeability), Pe (×10^−6 cm/s) < 2.03)”.

For the molecule `Cn1c(=O)c2[nH]cnc2n(C)c1=O` [Theophylline], the “Pe(ref.)” value in series [2] was 0.12 ± 0.01 ×10^−6 cm/s.

Source of the values: publication PMC10878344 (Journal of Enzyme Inhibition and Medicinal Chemistry, 2024).
